Assay results taken from PMC6522510 (Nature Communications, 2019).
Where “and” joins values, the source holds several entries; their conditions need not be identical. Identical values can stand only once. Like-named read-outs stand apart in the source and are kept apart here.

Experiments:
MOLM-13 [1] = assay: Secondary dose-response HTS, Cell Titer Glo; type: cell-based, human; conditions: for EC50: Homo sapiens, read-out: average effective concentration, MOLM-13
MV4-11 [2] = assay: Secondary dose-response HTS, Cell Titer Glo; type: cell-based, human; conditions: for EC50: Homo sapiens, read-out: average effective concentration, MV4-11
CHRF288-11 [3] = assay: Secondary dose-response HTS, Cell Titer Glo; type: cell-based, human; conditions: Homo sapiens, HTS, read-out: average effective concentration, CHRF288-11
CMK [4] = assay: Secondary dose-response HTS, Cell Titer Glo; type: cell-based, human; conditions: CMK; for EC50: Homo sapiens, read-out: average effective concentration, CMK
CMS [5] = assay: Secondary dose-response HTS, Cell Titer Glo; type: cell-based, human; conditions: Homo sapiens, HTS, read-out: average effective concentration, CMS
M07e [6] = assay: Secondary dose-response HTS, Cell Titer Glo; type: cell-based, human; conditions: Homo sapiens, M-07e, read-out: average effective concentration, M07e
ML2 = assay: Secondary dose-response HTS, Cell Titer Glo; type: cell-based, human; conditions: Homo sapiens
U937 [7] = assay: Secondary dose-response HTS, Cell Titer Glo; type: cell-based, human; conditions: Homo sapiens
MV4-11 [8] = assay: cells; parameters: species or system AML cell lines (8); conditions: Homo sapiens, MV4-11, 72 h, read-out: MV4-11
CMK [9] = assay: cells; parameters: species or system AML cell lines (8); conditions: Homo sapiens, 72 h, read-out: CMK
MOLM-13 [10] = assay: cells; parameters: species or system AML cell lines (8); Secondary HTS, 10-point dose-response in triplicate, Cell Titer Glo viability, four-parameter fit EC50; conditions: Homo sapiens, MOLM-13, 72 h, read-out: MOLM-13
MV4-11 [11] = assay: cells; parameters: species or system AML cell lines (8); Secondary HTS, 10-point dose-response in triplicate, Cell Titer Glo viability, four-parameter fit EC50; conditions: Homo sapiens, MV4-11, 72 h, read-out: MV4-11
CHRF288-11 [12] = assay: cells; parameters: species or system AML cell lines (8); Secondary HTS, 10-point dose-response in triplicate, Cell Titer Glo viability, four-parameter fit EC50; conditions: 72 h, read-out: CHRF288-11
CMK [13] = assay: cells; parameters: species or system AML cell lines (8); Secondary HTS, 10-point dose-response in triplicate, Cell Titer Glo viability, four-parameter fit EC50; conditions: Homo sapiens, CMK, 72 h, read-out: CMK
ML-2 [14] = assay: cells; parameters: species or system AML cell lines (8); Secondary HTS, 10-point dose-response in triplicate, Cell Titer Glo viability, four-parameter fit EC50; conditions: Homo sapiens, ML-2, 72 h, read-out: ML-2
U937 [15] = assay: cells; parameters: species or system AML cell lines (8); Secondary HTS, 10-point dose-response in triplicate, Cell Titer Glo viability, four-parameter fit EC50; conditions: Homo sapiens, read-out: U937
MOLM-13 [16] = assay: cells; parameters: species or system AML cell lines (8); Secondary HTS, 10-point dose-response in triplicate, Cell Titer Glo viability, four-parameter fit EC50; conditions: Homo sapiens, read-out: MOLM-13
CMS [17] = assay: cells; parameters: species or system AML cell lines (8); conditions: 72 h, read-out: CMS
CHRF288-11 [18] = system: CHRF288-11; parameters: species or system AML cell lines (8); Primary HTS, single concentration about 10 uM, Cell Titer Glo viability; log10 luminescence, per cent inhibition relative to cycloheximide control; conditions: 72 h, 10 µM, inhibitor
CMK [19] = system: CMK; parameters: species or system AML cell lines (8); Primary HTS, single concentration about 10 uM, Cell Titer Glo viability; log10 luminescence, per cent inhibition relative to cycloheximide control; conditions: 72 h, 10 µM, inhibitor
CMS [20] = system: CMS; parameters: species or system AML cell lines (8); Primary HTS, single concentration about 10 uM, Cell Titer Glo viability; log10 luminescence, per cent inhibition relative to cycloheximide control; conditions: 72 h, 10 µM, inhibitor
M07e [21] = system: M07e; parameters: species or system AML cell lines (8); Primary HTS, single concentration about 10 uM, Cell Titer Glo viability; log10 luminescence, per cent inhibition relative to cycloheximide control; conditions: 72 h, 10 µM, inhibitor
ML-2 [22] = system: ML-2; parameters: species or system AML cell lines (8); Primary HTS, single concentration about 10 uM, Cell Titer Glo viability; log10 luminescence, per cent inhibition relative to cycloheximide control
MOLM-13 [23] = system: MOLM-13; parameters: species or system AML cell lines (8); Primary HTS, single concentration about 10 uM, Cell Titer Glo viability; log10 luminescence, per cent inhibition relative to cycloheximide control; conditions: 72 h, 10 µM, inhibitor
MV4-11 [24] = system: MV4-11; parameters: species or system AML cell lines (8); Primary HTS, single concentration about 10 uM, Cell Titer Glo viability; log10 luminescence, per cent inhibition relative to cycloheximide control; conditions: 72 h, 10 µM, inhibitor
U937 [25] = system: U937; parameters: species or system AML cell lines (8); Primary HTS, single concentration about 10 uM, Cell Titer Glo viability; log10 luminescence, per cent inhibition relative to cycloheximide control; conditions: 72 h, 10 µM, inhibitor
[26] = system: MLLr primary AML blast samples; assay: Ex vivo drug treatment of primary AML blasts on mesenchymal stromal cells; type: cell-based; conditions: Homo sapiens; primary blasts on MSC, 96 h, range over patient samples
CHRF288-11 [27] = assay: cells; parameters: species or system AML cell lines (8); conditions: 72 h, read-out: CHRF288-11
[28] = secondary high-throughput screen, MOLM-13
[29] = secondary high-throughput screen, MV4-11
[30] = secondary high-throughput screen, CHRF288-11
[31] = secondary high-throughput screen
[32] = secondary high-throughput screen, CMS
[33] = secondary high-throughput screen, […]
[34] = secondary high-throughput screen, ML-2, read-out: average effective concentration, ML-2
[35] = U-937, secondary high-throughput screen, U937, read-out: average effective concentration, U937
[36] = secondary high-throughput screen, M07e

Row | Structure (SMILES) | EC50 (MOLM-13 [1]; [28]) [nM] | EC50 (CHRF288-11 [3]; [30]) [nM] | EC50 (CMS [5]; [32]) [nM] | EC50 (ML2; [34]) [nM] | EC50 (U937 [7]; [35]) [nM] | EC50 (MV4-11 [8]) [nM] | EC50 (M07e [6]; [36]) [nM] | EC50 (CMK [4]; [31]) [nM] | EC50 (MV4-11 [2]; [29]) [nM] | other results
1 | CCC(=O)CCCCC[C@@H]1NC(=O)[C@H]2CCCCN2C(=O)[C@H]([C@@H](C)CC)NC(=O)[C@H](Cc2cn(OC)c3ccccc23)NC1=O [APICIDIN] | 130 | 410 | 220 | 180 | 250 | > 10000 | – | – | – | average effective concentration, MV4-11 (MV4-11 [2]; [29]): Inactive; average effective concentration, CMK (CMK [4]; [31]): Inactive; EC50 (M07e [6]; [33]): 140 nM; EC50 (CMK [9]): > 10000 nM
2 | CCn1c(C(=O)N(C2CC2)C2CC2)cc2c3c(ncn3C)c(Nc3cc(C)n(C)n3)nc21 [BMS-911543] | – | – | 5000 | – | – | – | 8700 | – | – | EC50 (MOLM-13 [10]): > 10000 nM; EC50 (MV4-11 [11]): > 10000 nM; EC50 (CHRF288-11 [12]): > 10000 nM; EC50 (CMK [13]): > 10000 nM; EC50 (ML-2 [14]): > 10000 nM; EC50 (U937 [15]; U-937, 72 h): > 10000 nM
3 | CC1=C(O)C(=O)C=C2C1=CC=C1[C@@]2(C)CC[C@@]2(C)[C@@H]3C[C@](C)(C(=O)O)CC[C@]3(C)CC[C@]12C [CELASTROL] | – | 75 | 64 | 67 | 79 | > 10000 | – | 69 | – | average effective concentration, MOLM-13 (MOLM-13 [1]; [28]): Inactive; average effective concentration, MV4-11 (MV4-11 [2]; [29]): Inactive; EC50 (M07e [6]; [33]): 940 nM; EC50 (MOLM-13 [16]; 72 h cell viability): > 10000 nM
4 | CN1C(=O)[C@@]23C[C@]4([C@]56C[C@@]78SS[C@@](CO)(C(=O)N7[C@H]5Nc5ccccc56)N(C)C8=O)c5ccccc5N[C@@H]4N2C(=O)[C@]1(CO)SS3 [CHAETOCIN] | 62 | 12 | 10 | 26 | – | – | – | – | 29 | average effective concentration, CMK (CMK [4]; [31]): Inactive; EC50 (M07e [6]; [33]): 12 nM; EC50 (U937 [15]; U-937, 72 h cell viability): 7.7 nM; EC50 (CMK [9]): > 10000 nM
5 | Nc1nc(Cl)nc2c1ncn2[C@H]1C[C@H](O)[C@@H](CO)O1 [CLADRIBINE] | 35 | 170 | – | 190 | 87 | – | 14 | 30 | 24 | EC50 (CMS [17]): > 10000 nM
6 | CN1C(=O)[C@]23CC4=CC=C[C@H](O)[C@H]4N2C(=O)[C@@]1(CO)SS3 [GLIOTOXIN] | – | 24 | 26 | 25 | 12 | > 10000 | – | 16 | – | average effective concentration, MOLM-13 (MOLM-13 [1]; [28]): Inactive; average effective concentration, MV4-11 (MV4-11 [2]; [29]): Inactive; EC50 (M07e [6]; [33]): 130 nM; CHRF288-11 %inh (CHRF288-11 [18]): 141.2% and 155.7%; CMK %inh (CMK [19]): 129.2% and 125%; CMS %inh (CMS [20]): 108.9% and 102.6%; M07e %inh (M07e [21]): 143.7% and 136.2%; ML-2 %inh (ML-2 [22]; 72 h, 10 µM, inhibitor): 66.31%; ML-2 %inh (ML-2 [22]; 72 h, 10 µM; inhibitor): 62.11%; MOLM-13 %inh (MOLM-13 [23]): 95.14% and 103.3%; MV4-11 %inh (MV4-11 [24]): 84.27% and 75%; U937 %inh (U937 [25]): 86.1% and 87.37%; EC50 (MOLM-13 [16]; 72 h cell viability): > 10000 nM
7 | CC(C)Oc1ccc(C(=O)N[C@H](CNC(=O)CN(C)C)Cc2ccc(-c3cn4cccc([C@H](C)O)c4n3)cc2)cc1Cl [GSK-923295] | – | – | – | – | 1 | – | 140 | – | – | EC50 (CMS [5]): 11 nM; EC50 (MOLM-13 [10]): > 10000 nM; EC50 (MV4-11 [11]): > 10000 nM; EC50 (CHRF288-11 [12]): > 10000 nM; EC50 (CMK [13]): > 10000 nM; EC50 (ML-2 [14]): 7.7 nM
8 | C=C1C(=O)O[C@@H]2C[C@@H](C)[C@@H]3C=CC(=O)[C@@]3(C)[C@@H](O)[C@H]12 [HELENALIN] | – | – | – | – | – | > 10000 | – | – | – | average effective concentration, MOLM-13 (MOLM-13 [1]): Inactive; average effective concentration, MV4-11 (MV4-11 [2]): Inactive; EC50 (CHRF288-11 [3]): 170 nM; EC50 (CMK [4]): 190 nM; EC50 (CMS [5]): 210 nM; EC50 (M07e [6]): 340 nM; EC50 (ML2; ML-2, read-out: average effective concentration, ML-2): 130 nM; EC50 (U937 [7]; U-937, read-out: average effective concentration, U937): 170 nM; EC50 (MOLM-13 [16]; 72 h cell viability): > 10000 nM
9 | CC(C)C[C@H](NC(=O)CNC(=O)c1cc(Cl)ccc1Cl)B(O)O [IXAZOMIB] | – | 10 | 5.6 | – | 10 | – | 11 | 7 | – | EC50 (MOLM-13 [10]): 6.7 nM; EC50 (MV4-11 [11]): > 10000 nM; EC50 (ML-2 [14]): 5.2 nM
10 | C=CC(=O)N1CCC[C@@H](n2nc(-c3ccc(Oc4ccccc4)cc3)c3c(N)ncnc32)C1 [Ibrutinib, reference compound] | 6700 | – | > 10000 | – | 10000 | – | – | > 10000 | 10000 | IC50 [26]: > 20000 nM
11 | C[C@]12O[C@H](C[C@]1(O)CO)n1c3ccccc3c3c4c(c5c6ccccc6n2c5c31)CNC4=O [LESTAURTINIB] | – | 110 | 7.55 | 320 | 41 | – | 1 | 3.3 | 3200 | EC50 (MOLM-13 [16]; 72 h cell viability): > 10000 nM
12 | O=c1cc(N2CCOCC2)oc2c(-c3ccccc3)cccc12 [LY-294002] | – | – | > 10000 | – | – | – | > 10000 | – | – | EC50 (MOLM-13 [10]): > 10000 nM; EC50 (MV4-11 [11]): > 10000 nM; EC50 (CHRF288-11 [12]): > 10000 nM; EC50 (CMK [13]): > 10000 nM; EC50 (ML-2 [14]): > 10000 nM; EC50 (U937 [15]; U-937, 72 h): > 10000 nM
13 | CC(C)[C@]12O[C@H]1[C@@H]1O[C@]13[C@]1(O[C@H]1C[C@H]1C4=C(CC[C@@]13C)C(=O)OC4)[C@@H]2O [TRIPTOLIDE] | 120 | – | 70 | 61 | 100 | – | 10 | 10 | 230 | EC50 (CHRF288-11 [27]): > 10000 nM
14 | COC(=O)[C@]1(C)CC[C@]2(C)CC[C@]3(C)C4=CC=C5C(=CC(=O)C(O)=C5C)[C@]4(C)CC[C@@]3(C)[C@@H]2C1 [[…]] | – | – | – | – | – | > 10000 | – | – | – | EC50 (MOLM-13 [16]; MOLM-13, 72 h): > 10000 nM
